Laboratory results from PubChem BioAssay (NCI).
Several values for one entry are separate records, joined by “and”; a condition that tells them apart may be missing. Identical values can stand only once.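 Five concentrations, 48 hours, 96-well plates. Abbreviation: GI50, concentration required for 50% inhibition of growth. TGI marks complete inhibition of growth.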

Experiments:
Test in all cases: NCI anticancer screen, dose series, 48 h
A498 renal = tested on: A498 renal
HCC-2998 colon = tested on: HCC-2998 colon
RPMI-8226 leukemia = tested on: RPMI-8226 leukemia
UACC-62 melanoma = tested on: UACC-62 melanoma
PC-3 prostate = tested on: PC-3 prostate
SK-MEL-2 melanoma = tested on: SK-MEL-2 melanoma
NCI-H460 lung = tested on: NCI-H460 lung
HOP-92 NSCLC = tested on: HOP-92 NSCLC
HL-60(TB) leukemia = tested on: HL-60(TB) leukemia
HS 578T breast = tested on: HS 578T breast

Structure (SMILES) | GI50 (A498 renal) [µM] | TGI (A498 renal) | GI50 (HCC-2998 colon) [µM] | TGI (HCC-2998 colon) | GI50 (RPMI-8226 leukemia) [µM] | TGI (RPMI-8226 leukemia) | GI50 (UACC-62 melanoma) [µM] | TGI (UACC-62 melanoma) | GI50 (PC-3 prostate) [µM] | TGI (PC-3 prostate) | GI50 (SK-MEL-2 melanoma) [µM] | TGI (SK-MEL-2 melanoma) | GI50 (NCI-H460 lung) | TGI (NCI-H460 lung) | TGI (HOP-92 NSCLC) | GI50 (HL-60(TB) leukemia) [µM] | TGI (HL-60(TB) leukemia) [µM] | GI50 (HS 578T breast) | TGI (HS 578T breast) | GI50 (HOP-92 NSCLC) [µM]
COc1cc(/C=C/C(=O)c2c(C)nc3ccccc3c2C)ccc1OCCCN1CCN(C(=O)c2ccco2)CC1 | 4.14 | 17.7 µM | 10.4 | 22.1 µM | 1.92 | 11.9 µM | 8.39 | 21.7 µM | 6.44 | 26.7 µM | 16.1 | 37.7 µM | 8.91 µM | 21.7 µM | 4.74 µM | 2.72 | 5.63 | 12 µM | 51.8 µM | 
Cc1ccc(OCC2OC(n3cnc4c(Br)nc(Br)nc43)CC2Oc2ccc(C)cc2)cc1 (configuration not stated) | 22.9 | 20.6 µM and 41 µM | 3.07 | 11.8 µM and 7.24 µM | 7.52 | 28.7 µM and > 71.3 µM | 3.1 | 11.4 µM and 20.6 µM | 5.42 | 16.2 µM and 11.8 µM | 14.1 | 28.3 µM and 8.15 µM | 1.86 µM and 10.7 µM | 6.07 µM and 28 µM | 2.55 µM and 5.36 µM |  | 21.8 | 14.4 µM and 2.96 µM | 36 µM and 7.18 µM | 1.16
Nc1ncnc2c1ccn2[C@@H]1O[C@H]([C@H](O)c2ccc(Cl)c(F)c2)[C@@H](O)[C@H]1O | 52.4 | > 100 µM | > 100 | > 100 µM | > 100 | > 100 µM | > 100 | > 100 µM | > 100 | > 100 µM | > 100 | > 100 µM | > 100 µM | > 100 µM | > 100 µM | > 100 | > 100 | > 100 µM | > 100 µM | > 100
Cc1nccc2c3ccc(OCc4cn(-c5ccc(Cl)cc5)nn4)cc3n(CC(C)C)c12 | 1.39 | 9.32 µM | 3.68 | > 33.3 µM | 1.09 | 3.95 µM | 2.31 | 10.1 µM | 1.52 | > 33.3 µM | 5.59 | 22.5 µM | 2.33 µM | 12.9 µM | 13.6 µM | 0.886 | 2.07 | 2.62 µM | 30.1 µM | 1.19
COc1ccc(N(C)c2nc(Cl)nc3cnn(C)c23)cc1 | < 0.01 | 0.178 µM | 0.0285 | > 59.7 µM | < 0.0177 | > 100 µM | < 0.01 | > 100 µM | < 0.01 | > 100 µM | < 0.01 | > 100 µM | < 0.01 µM | > 100 µM | 7.95 µM | < 0.01 | < 0.0222 | < 0.01 µM | > 100 µM | < 0.01
CC1(C)N=C(N)N=C(N)N1c1cccc(Br)c1 | 15.9 | > 100 µM | 0.777 | > 45.5 µM | 6.81 | > 100 µM | 1.93 | > 100 µM | 0.212 | > 100 µM | > 100 | > 100 µM | 0.435 µM | > 100 µM | > 100 µM | 0.491 | > 73.8 | > 30.4 µM | > 100 µM | > 100
C/C(=N/N=C(N)N)c1ccc(NC(=O)Nc2ccc(/C(C)=N/N=C(N)N)cc2)cc1 | 23.5 | 69.9 µM | 23.4 | 81.5 µM | 3.77 | 34.2 µM | 17.4 | 45.3 µM | 14.4 | 46.9 µM | 18.4 | 60.6 µM | 13.5 µM | 48.8 µM | 33.8 µM | 7.89 | > 28.4 | 26.5 µM | > 66.6 µM | 14.2
COc1cnc2c(c1)C(=O)c1c-2n(CCCN2CCNCC2)c(=O)c2cc([N+](=O)[O-])ccc12 | 0.0863 | 2.19 µM | 1.11 | 2.36 µM | 0.301 | 2.28 µM | 0.176 | 1.57 µM | 1.17 | 2.56 µM | 2.07 | 3.95 µM |  |  | 9.91 µM | 0.113 | 1.11 | 1.82 µM | 4.6 µM | 1.25
FC(F)(F)c1cc(Nc2ccc3cc(OCCCN4CCOCC4)ccc3n2)ccc1Cl | 1.47 | 6.27 µM | 1.74 | 3.38 µM | 1.11 | 6.61 µM |  |  | 1.09 | 2.68 µM | 1.99 | 3.88 µM | 1.72 µM | 3.42 µM | 2.97 µM | 2.24 | 6.49 | 1.68 µM | 4.36 µM | 1.15
COc1cc(/C=C2\C[C@H]3[C@@H]4CC=C5C[C@@H](OC(C)=O)CC[C@]5(C)[C@H]4CC[C@]3(C)[C@H]2OC(C)=O)ccc1OCCN1CCCC1 |  |  | 8.01 | 15.4 µM | 1.07 | 13.4 µM | 9.48 | 17.5 µM | 8 | 20.4 µM | 20.2 | > 50 µM | 10.2 µM | 23.1 µM | 13.4 µM | 10.3 | 20.6 | 9.32 µM | 18.8 µM | 5.45
